# Reference: patent US8952024B2, “Herbicidal pyrimidone derivatives” (E I du Pont de Nemours and Company, priority 2009, dated 2015)
# Experiments:
# Experiment in all cases: Test B pre-/postemergence plant response
# Format in all cases: in vivo
# [1] = tested on: Surinam grass (Brachiaria decumbens); conditions: for Plant response rating, Surinam Grass: Postemergence, scale 0 to 100 (0 no effect, 100 complete control)
# Summary of the method: (§1)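 Plants treated either at seeding (loam/sand soil) or postemergence at 2 to 18 cm height, using a surfactant-containing non-phytotoxic solvent formulation. Evaluation was visual after 13 to 15 days, 0 to 100 scale relative to controls.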
# [2] = tested on: large crabgrass (Digitaria sanguinalis)
# Summary of the method: as §1
# [3] = tested on: green foxtail (Setaria viridis)
# Summary of the method: as §1
# [4] = tested on: Italian ryegrass (Lolium multiflorum); conditions: for Plant response rating, Ryegrass, Italian: Postemergence, scale 0 to 100 (0 no effect, 100 complete control)
# Summary of the method: as §1
# corn (Zea mays) = tested on: corn (Zea mays)
# Summary of the method: as §1
# [5] = tested on: downy bromegrass (Bromus tectorum)
# Summary of the method: as §1
# [6] = tested on: giant foxtail (Setaria faberii)
# Summary of the method: as §1
# [7] = tested on: johnsongrass (Sorghum halepense)
# Summary of the method: as §1
# [8] = tested on: velvetleaf (Abutilon theophrasti); conditions: for Plant response rating, Velvetleaf: Postemergence, scale 0 to 100 (0 no effect, 100 complete control)
# Summary of the method: as §1
# kochia (Kochia scoparia) = tested on: kochia (Kochia scoparia)
# Summary of the method: as §1
# [9] = tested on: yellow nutsedge (Cyperus esculentus)
# Summary of the method: as §1
# [10] = tested on: blackgrass (Alopecurus myosuroides)
# Summary of the method: as §1
# [11] = tested on: bermudagrass (Cynodon dactylon)
# Summary of the method: as §1
# [12] = tested on: woolly cupgrass (Eriochloa villosa)
# Summary of the method: as §1
# [13] = tested on: ragweed (common ragweed, Ambrosia elatior); conditions: for Plant response rating, Ragweed: Postemergence, scale 0 to 100 (0 no effect, 100 complete control)
# Summary of the method: as §1
# [14] = tested on: lambsquarters (Chenopodium album)
# Summary of the method: as §1
# [15] = tested on: goosegrass (Eleusine indica)
# Summary of the method: as §1
# [16] = 62 g ai/ha, postemergence, 0 is no effect, 100 is complete control, 13 to 15 days
# [17] = 31 g ai/ha, postemergence, scale 0 to 100, 0 is no effect, 100 is complete control
# [18] = Postemergence, 125 g ai/ha, scale 0 to 100 (0 no effect, 100 complete control)
# [19] = Postemergence, 250 g ai/ha, scale 0 to 100 (0 no effect, 100 complete control)
smiles,measurement,setting,value
COCCn1c(-c2cccs2)ncc(C(=O)C2=C(O)CCCC2=O)c1=O [Compound 108],Surinam Grass plant response rating (0 to 100 scale),[1]; [16],60
same,"Plant response rating, Surinam Grass",[1]; 125 g ai/ha,65
same,"Plant response rating, Surinam Grass",[1]; 250 g ai/ha,80
same,"Plant response rating, Crabgrass, Large",[2]; [17],60
same,"Crabgrass, Large plant response rating (0 to 100 scale)",[2]; [16],70
same,"Plant response rating, Crabgrass, Large",[2]; [18],75
same,"Plant response rating, Crabgrass, Large",[2]; [19],85
same,"Plant response rating, Foxtail, Green",[3]; [17],5
same,"Foxtail, Green plant response rating (0 to 100 scale)",[3]; [16],30
same,"Plant response rating, Foxtail, Green",[3]; [18],80
same,"Plant response rating, Foxtail, Green",[3]; [19],80
same,"Ryegrass, Italian plant response rating (0 to 100 scale)",[4]; [16],0
same,"Plant response rating, Ryegrass, Italian",[4]; 125 g ai/ha,0
same,"Plant response rating, Ryegrass, Italian",[4]; 250 g ai/ha,0
same,"Plant response rating, Corn",corn (Zea mays); [17],15
same,Corn plant response rating (0 to 100 scale),corn (Zea mays); [16],35
same,"Plant response rating, Corn",corn (Zea mays); [18],50
same,"Plant response rating, Corn",corn (Zea mays); [19],65
same,"Plant response rating, Bromegrass, Downy",[5]; [17],0
same,"Bromegrass, Downy plant response rating (0 to 100 scale)",[5]; [16],0
same,"Plant response rating, Bromegrass, Downy",[5]; [18],5
same,"Plant response rating, Bromegrass, Downy",[5]; [19],5
same,"Plant response rating, Foxtail, Giant",[6]; [17],45
same,"Foxtail, Giant plant response rating (0 to 100 scale)",[6]; [16],60
same,"Plant response rating, Foxtail, Giant",[6]; [18],75
same,"Plant response rating, Foxtail, Giant",[6]; [19],80
same,"Plant response rating, Johnsongrass",[7]; [17],10
same,Johnsongrass plant response rating (0 to 100 scale),[7]; [16],20
same,"Plant response rating, Johnsongrass",[7]; [18],20
same,"Plant response rating, Johnsongrass",[7]; [19],60
same,Velvetleaf plant response rating (0 to 100 scale),[8]; [16],100
same,"Plant response rating, Velvetleaf",[8]; 125 g ai/ha,100
same,"Plant response rating, Velvetleaf",[8]; 250 g ai/ha,100
same,"Plant response rating, Kochia",kochia (Kochia scoparia); [17],70
same,Kochia plant response rating (0 to 100 scale),kochia (Kochia scoparia); [16],95
same,"Plant response rating, Kochia",kochia (Kochia scoparia); [18],98
same,"Plant response rating, Kochia",kochia (Kochia scoparia); [19],100
same,"Plant response rating, Nutsedge, Yellow",[9]; [17],50
same,"Nutsedge, Yellow plant response rating (0 to 100 scale)",[9]; [16],75
same,"Plant response rating, Nutsedge, Yellow",[9]; [18],80
same,"Plant response rating, Nutsedge, Yellow",[9]; [19],85
same,"Plant response rating, Blackgrass",[10]; [17],0
same,Blackgrass plant response rating (0 to 100 scale),[10]; [16],5
same,"Plant response rating, Blackgrass",[10]; [18],20
same,"Plant response rating, Blackgrass",[10]; [19],30
same,"Plant response rating, Bermudagrass",[11]; [17],85
same,Bermudagrass plant response rating (0 to 100 scale),[11]; [16],90
same,"Plant response rating, Bermudagrass",[11]; [18],100
same,"Plant response rating, Bermudagrass",[11]; [19],100
same,"Plant response rating, Cupgrass, Woolly",[12]; [17],40
same,"Cupgrass, Woolly plant response rating (0 to 100 scale)",[12]; [16],60
same,"Plant response rating, Cupgrass, Woolly",[12]; [18],70
same,"Plant response rating, Cupgrass, Woolly",[12]; [19],75
same,Ragweed plant response rating (0 to 100 scale),[13]; [16],85
same,"Plant response rating, Ragweed",[13]; 125 g ai/ha,95
same,"Plant response rating, Ragweed",[13]; 250 g ai/ha,98
same,"Plant response rating, Lambsquarters",[14]; [17],98
same,Lambsquarters plant response rating (0 to 100 scale),[14]; [16],98
same,"Plant response rating, Lambsquarters",[14]; [18],100
same,"Plant response rating, Lambsquarters",[14]; [19],100
same,"Plant response rating, Goosegrass",[15]; [17],60
same,Goosegrass plant response rating (0 to 100 scale),[15]; [16],70
same,"Plant response rating, Goosegrass",[15]; [18],75
same,"Plant response rating, Goosegrass",[15]; [19],85
